Results taken from patent US12544371B2, “Methods and compositions for treating acute lung injury and acute respiratory distress syndrome” (CalciMedica, Inc., priority 2020, dated 2026).
Like-named read-outs stand apart in the source and are kept apart here.

Tests used:
[1] = Animal models of acute pancreatitis and lung injury (general statements); format: in vivo
Text: Preclinical data supports the use of CRAC inhibitors (e.g. N-(5-(6-Chloro-2,2-difluorobenzo[d][1,3]dioxol-5-yl)pyrazin-2-yl)-2-fluoro-6-methylbenzamide, Compound 1) in severe COVID-19 pneumonia.
For example, Compound 1 was effective following i.p. injection in mice (Wen et al., Gastroenterol, 149: 481-492, 2015), and following 4-hour i.v. infusion in rats (Waldron et al., J Physiol, 597.12: 3085-3105, 2019).

[2] = system: TNFα released from human PBMCs; test: Cytokine released from human PBMCs: TNFα; format: cell-based
Text: (§1) CRAC channels may play a proximal role in a calcium-calcineurin pathway leading to cytokine release in immune cells.

[3] = cited from earlier work
[4] = system: IL-2 release by human PBMCs; test: IL-2 release by human PBMCs, isolated cell assay; format: cell-based; details: PBMC, SEM (n), read-out: Compound 1 IC50, IL-2 release by human PBMCs
Text: as §1

[5] = system: IL-2 released from human PBMCs; test: Cytokine released from human PBMCs: IL-2; format: cell-based
Text: as §1

[6] = system: IL-6 released from human PBMCs; test: Cytokine released from human PBMCs: IL-6; format: cell-based
Text: as §1

[7] = system: stimulated IL-2 release in whole blood; test: Whole blood assay of stimulated IL-2 release; format: cell-based; details: Human whole blood; SEM (n); read-out: Compound 1 IC50, whole blood assay of stimulated IL-2 release
Text: as §1

[8] = In vivo micronucleus study (bone marrow micronucleus and liver Comet assays); details: rats
[9] = Repeat-dose toxicity study in rats; format: in vivo; details: rat
[10] = Phase 2 open-label study in acute pancreatitis with SIRS and hypoxemia (Compound 1 Test 201); format: in vivo, human
Protocol: A Phase 2, open-label, dose-response, multi-center study of Compound 1 was conducted in patients with AP and accompanying SIRS and hypoxemia (Compound 1 Test 201). One patient was randomized having SIRS alone at Screening. The primary objective of the study was to evaluate safety and tolerability; the secondary objective was to evaluate efficacy and the PK profile of Compound 1.
The study had 2 phases; the Initial Phase consisted of 2 concurrently enrolled cohorts and the Second Phase consisted of 2 concurrently enrolled cohorts. In total, it was planned to have 4 Cohorts containing 24 adult male and female patients with AP and accompanying SIRS and hypoxemia. In the Initial Phase, 4 female patients were to be randomized in a 3:1 ratio to receive Compound 1+Supportive Care (SC) or SC alone (Cohort 1). Concurrently, 4 male patients were to be randomized in a 3:1 ratio to receive Compound 1+SC or SC alone (Cohort 2). Doses were to be 1.0 mg/kg on Day 1 and 1.4 mg/kg daily on Days 2, 3 and 4 (low dose regimen). In the Second Phase, 8 female patients were to be randomized in a 3:1 ratio to receive Compound 1+SC or SC alone (Cohort 3). Concurrently, 8 male patients were to be randomized in a 3:1 ratio to receive Compound 1+SC or SC alone (Cohort 4). Planned doses for both Cohorts 3 and 4 were to be 2.08 mg/kg daily on Days 1 and 2 and 1.6 mg/kg daily on Days 3 and 4 (high dose regimen).
The decision to start Cohort 3 in the Second Phase was made after study personnel reviewed the available efficacy, safety and tolerability data from Cohort 1 and discussed this with the Principal Investigator (PI). […] Cohort 3, therefore, received the same dose level and schedule as Cohort 1, […] on Day 1 and 1.4 mg/kg daily on Days 2, 3 and 4. The decision to start Cohort 4 in the Second Phase of the study was made after study personnel reviewed the available efficacy, safety and tolerability data from Cohort 2 and discussed this with the Principal Investigator. Cohort 4, therefore, received the original planned dose level and schedule; 2.08 mg/kg daily on Days 1 and 2 and 1.6 mg/kg daily on Days 3 and 4.
The first infusion of Compound 1 was started within 6 (up to 8) hours of the patient or LAR providing informed consent and was administered as a continuous IV infusion over 4 hours. Subsequent infusions were to be started every 24 hours (±1 hour) from the start of the first infusion.

## Cc1cccc(F)c1C(=O)Nc1cnc(-c2cc3c(cc2Cl)OC(F)(F)O3)cn1 [Compound 1, N-(5-(6-Chloro-2,2-difluorobenzo[d][1,3]dioxol-5-yl)pyrazin-2-yl)-2-fluoro-6-methylbenzamide]
[1]
  cytokines and neutrophil infiltration in lung tissue: inhibit
[2]; Homo sapiens, PBMC, mean of replicates, read-out: Mean IC50, TNFα released from human PBMCs
  IC50: 225 nM
[2]; Homo sapiens, PBMC, single replicates, read-out: Replicate IC50 values, TNFα released from human PBMCs
  IC50: 278 nM
[2]; single replicates, read-out: Replicate IC50 values, TNFα released from human PBMCs
  IC50: 173 nM
[3]; animal models
  cytokine levels in serum and lung: decreases
  lung inflammation in animal models: protect against lung inflammation
[3]; mice, Wen et al. 2015
  efficacy following i.p. injection: effective
[3]; rats, Waldron et al. 2019
  efficacy following 4-hour i.v. infusion: effective
[4]
  IC50: 10 ± 0.4 nM
[5]; Homo sapiens, PBMC, mean of replicates, read-out: Mean IC50, IL-2 released from human PBMCs
  IC50: 59 nM
[5]; Homo sapiens, PBMC, single replicates, read-out: Replicate IC50 values, IL-2 released from human PBMCs
  IC50: 71 nM
[5]; single replicates, read-out: Replicate IC50 values, IL-2 released from human PBMCs
  IC50: 47 nM
[6]; Homo sapiens, PBMC, mean of replicates, read-out: Mean IC50, IL-6 released from human PBMCs
  IC50: 135 nM
[6]; Homo sapiens, PBMC, single replicates, read-out: Replicate IC50 values, IL-6 released from human PBMCs
  IC50: 145 nM
[6]; single replicates, read-out: Replicate IC50 values, IL-6 released from human PBMCs
  IC50: 126 nM
[7]
  IC50: 178 ± 32 nM
[8]
  DNA reactivity, bone marrow micronucleus and liver Comet assays: no evidence of DNA reactivity
[9]; in vivo, repeat-dose, rats, read-out: no observable adverse effect level (NOAEL)
  NOAEL: 25 mg/kg/day
[9]; repeat-dose toxicity study
  local irritation at the injection site: no evidence of compound-related or vehicle-related local irritation
[10]; 2a High Dose Regimen + SC, admission 1
  Discharge IL-6 levels, patients with 150 pg/mL ≤ IL-6 < 1000 pg/mL: 1
[10]; 2a High Dose Regimen + SC, admission 2
  Discharge IL-6 levels, patients with IL-6 ≥ 1000 pg/mL: 0
[10]; 2a Low Dose Regimen + SC, admission 0
  Discharge IL-6 levels, patients with IL-6 ≥ 1000 pg/mL: 0
[10]; 2a Low Dose Regimen + SC, admission 4
  Discharge IL-6 levels, patients with 150 pg/mL ≤ IL-6 < 1000 pg/mL: 0
[10]; Tests 201 and 202 pooled, maximum IL-6 ≥150 pg/mL in the first 24 hours
  patients in whom IL-6 levels decreased to below 150 pg/mL: 7 of 8
[10]; first critically ill AP patient
  procalcitonin at discharge: 0.24 ng/mL
[10]; first critically ill AP patient, IL-6 >7296 pg/mL at study entry
  IL-6 at 120 hrs: 66 pg/mL
[10]; high dose regimen+SC
  TEAEs with causality considered Possible (Chromaturia): 1 TEAE
[10]; high dose regimen+SC, 1 of 6
  patients with SAEs: 17%
[10]; high dose regimen+SC, 2 of 6
  patients with Acute Respiratory Distress Syndrome: 33%
  patients with Confusional State: 33%
  patients with Malnutrition: 33%
  patients with severe TEAEs: 33%
[10]; high dose regimen+SC, 5 of 6 patients
  patients with treatment-emergent AEs (TEAEs): 83%
[10]; high dose regimen+SC, 3 TEAEs
  patients with TEAEs leading to discontinuation of the study drug: 2 patients
[10]; high dose regimen+SC, Hypoxic-Ischemic Encephalopathy, causality Unrelated
  deaths during the study: 1 death
[10]; in vivo
  IL-6 levels in patients: marked reduction
  respiratory dysfunction in patients: beneficial effects
[10]; intravenous, 90 days in patients with AP, SIRS plus hypoxemia
  safety in critically ill patients: safe
[10]; low dose or high dose regimen
  changes in vital signs, oxygenation, and laboratory values: no untoward changes
[10]; low dose regimen+SC and high dose regimen+SC
  safety and tolerability: well tolerated
[10]; low dose regimen+SC, 0 of 8
  patients with severe TEAEs: 0%
[10]; low dose regimen+SC, 2 of 8
  patients with Headache: 25%
  patients with Hypokalemia: 25%
  patients with SAEs: 25%
[10]; low dose regimen+SC, 7 of 8 patients
  patients with treatment-emergent AEs (TEAEs): 88%
[10]; phase 2a study patients
  procalcitonin levels versus the standard of care: did not increase
[10]; second critically ill AP patient
  procalcitonin at discharge: 0.30 ng/mL
[10]; second critically ill AP patient, IL-6 1021 pg/mL at study entry
  IL-6 at 120 hrs: 83 pg/mL
